Test results taken from patent US8927499B2, “Glycine derivative capable of inhibiting melanin formation and composition using the same” (Corum Inc., priority 2010, dated 2015).
Where a SMILES comes first, the peptide text is derived from it. [ ]: non-standard residue; d: D form. Sar = CNCC(=O)O

Key:
[1] = system: B16-F10 cells; assay: Melanogenesis inhibition test; assay type: cell-based, Mus musculus; settings: 3 days, OD 405 nm, tyrosine + α-MSH stimulated
Method: Melanogenesis Inhibition Test In the melanogenesis inhibition test, Kojic acid is used as the positive control. Compounds (II), (III), and (IV) and ascorbic acid derivative are evaluated regarding their whitening effect under a concentration of no cytotoxicity to test the melanogenesis inhibiting ability. B16-F10 B16-F10 cells are placed in a 96-well plate and each well comprises 5000 cells (5000 cells/well). The cells are incubated at 37° C. in 5% CO2 and 10% FBS DMEM (Fetal Bovine Serum Dulbecco's modified Eagle's medium) overnight to allow the cells to attach to the wells. Melanin production rate (%) is defined by the following equation: [formula] where ODT represents the optical density of the test sample at the wavelength 405 nm by the spectrophotometer; ODB represents the optical density of the blank control at 405 nm; ODN represents the optical density of the negative control at 405 nm. The negative control comprises 0.1 mg/ml of tyrosine and 1 μM of α-MSH (α-melanocyte stimulating hormone). The blank control comprises 0.1 mg/ml of tyrosine but no α-MSH. The test sample is prepared by stocking 5 wt % of compound (II), (III), or (IV) in phenol red free DMEM and 5 wt % FBS no phenol red DMEM with 0.1 mg/ml tyrosine and 1 μM α-MSH is prepared and filtered by a 0.22 μm filter. 0.1 mg/ml tyrosine may cause the medium over saturated and thus centrifugal filtration is required. The testing sample was prepared in the medium mentioned above. Until cells were at full confluence, they were treated with test samples and reference samples (prepared above) 100 μL each well for 3 days. After 3 days incubation, 100 μL 1N NaOH is added in each well. The solution is placed on a shaking table at least 10 minutes. The optical density of the test sample at 405 nm is measured. The positive control is Kojic acid (500 ppm concentration). Based on student's t-test, the P value is less than 0.05.

[2] = Color stability test (accelerated, 45° C. oven); assay type: physicochemical
Method: The test samples (compounds (II), (III), and (IV)) and the reference sample are separately dissolved in water and a buffer solution with pH=6 to prepare 0.5 wt % solutions. The buffer solution with pH=6 is a mixture solution of 3.8 ml 0.1M citric acid and 16.2 ml citrate. […] of a test sample are dissolved in the mixture solution to prepare a 0.5 wt % solution. Then, the solutions are placed in a 45° C. oven to perform an accelerated color stability test. After 14 and 28 days, the spectrophotometer is used to measure the light transmittance of these solutions at 440 nm.

[3] = system: 3T3 (Swiss albino mouse fibroblast) cells; assay: Cytotoxicity test by MTT assay (3T3); assay type: cell-based; settings: 3T3 and B16-F10 cells, compared with ascorbic acid derivative known to have no apparent cytotoxicity
Method: The cytotoxicity test is evaluated by MTT assay.

[4] = 0.5 wt % aqueous solution, 14 days
[5] = 0.5 wt % aqueous solution, 28 days
[6] = 0.5 wt % in citric acid buffer solution pH = 6, 14 days
[7] = 0.5 wt % in citric acid buffer solution pH = 6, 28 days

Structure (SMILES) | melanin production rate % ± standard deviation ([1]; sample concentration 0.2%) [%] | melanin production rate % ± standard deviation ([1]; sample concentration 0.4%) [%] | Transmittance % (440 nm) [2, 4] [%] | Transmittance % (440 nm) [2, 5] [%] | Transmittance % (440 nm) [2, 6] [%] | Transmittance % (440 nm) [2, 7] [%] | safety of using (cytotoxicity) [3]
O=C1O[C@H]([C@@H](O)CO)C(O)=C1O[C@H]1O[C@H](CO)[C@@H](O)[C@H](O)[C@H]1O [ascorbic acid 2-glucoside (AA2G), ascorbic acid 2-glucoside] | 86.8 ± 3.4 | 76.2 ± 10.5 | 97.8 | 96.9 |  |  | 
CCOC1=C(O)C(=O)O[C@@H]1[C@@H](O)CO [ethyl ascorbic acid] | 86.4 ± 2.6 | 78.9 ± 6.3 |  |  | 98.6 | 97.5 | 
O=C1O[C@H]([C@@H](O)CO)C(O)=C1O [Ascorbic acid] |  |  | 37.8 | 20.8 | 0.7 | 2.1 | 
OC[C@H]1O[C@@H](Oc2ccc(O)cc2)[C@H](O)[C@@H](O)[C@@H]1O [arbutin] |  |  | 96.7 | 95.4 |  |  | 
CC(=O)NCC(=O)NCCCC(=O)O [Compound (III), 4-(2-Acetylamino-acetylamino)-butyric acid] | 70.4 ± 10.0 | 14.2 ± 3.0 | 99.6 | 99.5 | 100 | 99.9 | the same as that of ascorbic acid derivative
CC(=O)NCC(=O)NCCC(=O)O [Compound (II), 3(2-acetylamino-acetylamino)-propionic acid] | 64.7 ± 12.8 | 11.0 ± 2.9 | 98.9 | 99.8 | 99.4 | 99.3 | the same as that of ascorbic acid derivative
NCCC(=O)N[C@@H](Cc1cnc[nH]1)C(=O)O [carnosine] | 129 ± 1.7 | 141 ± 10.5 |  |  |  |  | 
CC(=O)NCC(=O)N(C)CC(=O)O [Compound (IV), [(2-Acetylamino-acetyl)-methyl-amino]-acetic acid] (Ac-Gly-[Sar]-OH) | 60.8 ± 22.3 | 15.0 ± 5.6 | 99.7 | 100 | 100 | 100 | the same as that of ascorbic acid derivative
O=c1cc(CO)occ1O [Kojic acid] |  |  | 94.9 | 81 | 34.8 | 4.0 | 
O=C1O[C@H]([C@@H](O)CO)C(O)=C1OP(=O)([O-])[O-].[Mg+2] [ascorbic acid 2-phosphate magnesium] | 105.3 ± 3.4 | 88.4 ± 11.4 |  |  | 85.6 | 80.9 | 
